What was measured:
MCF-7 monolayer cells = assay: MTT cytotoxicity assay, monolayer; format: cell-based, human; details: drug added one day after seeding
Procedure: (§1) Monolayer cells (5×10^3cells/well) were seeded in quadruplicates in 96 well plates and were incubated with varying concentrations of 6-shogaol (1–100 μM), taxol (0.2–100 nM) or curcumin (4–80 μM). The effect of the drugs on the viability of all the cell lines was quantified by MTT (3-[4,5-dimethylthiazol-2-yl]-2,5 diphenyltetrazolium bromide) assay at different time points after drug treatment using a Biorad Plate reader. The IC50 values were calculated from the plot of percentage cell viability versus concentration of drug using the nonlinear regression programme of Origin.

[1] = tested on: MDA-MB-231 monolayer cells; assay: MTT cytotoxicity assay, monolayer; format: cell-based, human; details: drug added one day after seeding
Procedure: as §1

[2] = tested on: MRC5, NP69, HaCaT and HMEC; parameters: method as in PMID 23612072; details: cited from earlier work
MCF-7 cells [3] = assay: DAPI staining for apoptosis (chromatin condensation); format: cell-based, human; details: 25 μM
Procedure: Cells were seeded on cover slips. […] Cells were washed with PBS, fixed with Methanol-EDTA for 10 minutes at -20°C followed by rehydration with PBS at room temperature and incubated with 1 μg/ml DAPI. Mounted coverslips were visualised at 40X magnification under fluorescence microscope (Olympus IX71). Apoptotic cells were counted from five different fields.

MCF-7 spheroids [4] = assay: Primary sphere formation; format: cell-based, human
Procedure: (§2) 5000 cells/well were seeded in ultra low attachment plates. After 3 days of seeding, the spheres formed were kept with different concentrations of 6-shogaol and/or 25 μM DAPT for 7 days and the number of spheres were counted under the microscope. These primary spheres were dispersed and kept in fresh media without any treatment and counted again after 7 days to check the ability to regrow into secondary spheres. Control primary spheres were also processed similarly for comparison. Spheres were counted in Olympus IX71 microscope using 10X objective.

LC3-II in MCF7 cells = assay: Western blot of LC3-II expression; format: cell-based, human; details: 48 hours
Procedure: Lysates were placed into ice for 1 hour to ensure complete lysis followed by centrifugation at 14,000 g for 10 minutes and the supernatant was collected. Proteins were subjected to SDS-PAGE and transferred to polyvinylidene fluoride membrane. The membranes were blocked and incubated overnight with primary antibodies at 4°C followed by incubation with horseradish peroxidase tagged secondary antibodies. The blots were developed using ECL reagent. The primary antibodies were used in the following dilutions: Cleaved Notch1 (1:2000), Hes1 (1:200), Cyclin D1 (1:400), PARP (1:500 for sc) and (1:1000 for CST), LC3A/B (1:500), Bcl-2 (1:1000), Bax (1:1000) and β-actin (1:2000). β-actin was used as loading controls.
Densitometry was conducted for all the western blots using […] software (Bio-Rad). Normalisation was done according to the loading control and fold change was calculated with respect to the control. For graphs, results are depicted as mean ± standard error of mean or standard deviation (calculated from two or more experiments). The p-values were obtained using Student’s unpaired t-test and p < 0.05 was considered to be statistically significant.

MCF-7 spheroids [5] = assay: Secondary sphere formation; format: cell-based, human; details: for inhibition of secondary spheroid colonies: regrown 1 week without compound
Procedure: as §2

MCF-7 cells [6] = assay: Annexin V/PI flow-cytometric apoptosis assay; format: cell-based, human; details: 25 μM, 48 hours
Procedure: Apoptosis was quantified by using a FITC Annexin V Apoptosis Detection kit according to manufacturer’s instructions. MCF-7 cells were treated with 15 μM and 25 μM of 6-shogaol for 24, 48 and 72 hours, respectively. Attached and floating cells were collected and analyzed by a flow cytometer (BD FACS Aria II).

MCF-7 spheroid [7] = assay: MTT cytotoxicity assay, spheroids; format: cell-based, human; details: for IC50: MTT, 48 hours, drug added three days after seeding
Procedure: (§3) To check the effect of different drugs on the viability of spheroids, cells were seeded at 2.5×10^4 cells/well in 24-well ultra-low attachment plates and grown as spheroids. After 3 days, 6-shogaol (1–100 μM) or taxol (5 nM-50 μM) or curcumin (2–50 μM) was added to the wells and MTT assay was performed as explained above. Standard deviation was calculated from three independent experiments and the data were represented as the average of three experiments.

MDA MB-231 spheroid = assay: MTT cytotoxicity assay, spheroids; format: cell-based, human; details: for IC50: MTT, 48 hours, drug added three days after seeding
Procedure: as §3

HEK 293 cells = assay: MTT cytotoxicity assay, noncancerous cells; format: cell-based, human
Procedure: as §1

HaCaT cells = assay: MTT cytotoxicity assay, noncancerous cells; format: cell-based, human; details: 48 hours
Procedure: as §1

MCF-7 spheroid [8] = assay: Cell cycle analysis by flow cytometry (propidium iodide); format: cell-based, human; details: 25 μM, 48 hours; control 24%
Procedure: (§4) Cell cycle distribution of cells treated with 6-shogaol was analyzed by flow cytometric measurement of cellular DNA content. MCF-7 cells (5×10^5 cells/well) were subjected to 6-shogaol treatment for various time points. Culture media containing detached cells were collected and attached cells were trypsinized. Cells were pelleted, fixed in 70% (v/v) ethanol and stored at 4°C. In case of spheroids, cells were treated with different concentrations of 6-shogaol for 48 hours and fixed for further analysis. Before analysis, cells were re-washed with PBS and incubated with 10 μg/ml RNaseA and 400 μg/ml propidium iodide for 30 minutes at 37°C. Data were analyzed using FACS Diva software.

MCF-7 monolayer = assay: as above; format: cell-based, human; details: 16 μM (2×IC50), control 29%
Procedure: as §4

[9] = tested on: breast cancer spheroids (CD44+CD24-/low cells); assay: Flow cytometric analysis of cell surface markers CD44/CD24; format: cell-based, human; details: 40 μM, 18 hours; untreated 27.3%
Procedure: Monolayer cells or spheroids (with or without treatment of 6-shogaol) were dispersed by trypsin-EDTA. Cells were then pelleted down by centrifugation at 1600 rpm for 5 minutes at 4°C and resuspended in 1 ml of DMEM containing 2% FBS. Fluorescein isothiocyanate (FITC)-conjugated CD24 monoclonal antibody and phycoerythrin (PE)-conjugated CD44 monoclonal antibody (BD Biosciences) were added in 1:100 dilution and incubated on ice for 45 minutes in dark. The cells were then analyzed by flow cytometer (BD FACS Aria II) for the expression of CD24 and CD44.

breast cancer spheroids = assay: Apoptosis detection in spheroids; format: cell-based, human; details: 40 μM, upto 72 or 96 hours

## CCCCC/C=C/C(=O)CCc1ccc(O)c(OC)c1 [6-shogaol]
MCF-7 monolayer cells; 48 hours
  IC50: 7.94 ± 0.57 µM
[1]; 48 hours
  IC50: 5.67 ± 0.73 µM
[2]
  toxicity to normal cells: not toxic
MCF-7 cells [3]; 48 hours
  apoptosis as measured by chromatin condensation: 19%
MCF-7 cells [3]; 72 hours
  apoptosis as measured by chromatin condensation: 28%
MCF-7 spheroids [4]; 1 μM, 7 days
  reduction of number of primary spheroid colonies: 2 fold
MCF-7 spheroids [4]; 1 μM, 7 days continuous treatment, control 96
  average number of spheroid colonies (primary): 48 colonies
MCF-7 spheroids [4]; 40 μM, 7 days
  inhibition of primary spheroid colonies: 24 fold
MCF-7 spheroids [4]; 40 μM, 7 days continuous treatment, control 96
  number of spheroid colonies (primary): 4 colonies
LC3-II in MCF7 cells; 5 μM 6-shogaol alone, relative to control
  fold increase in LC3-II expression: 1.8 fold
LC3-II in MCF7 cells; 5 μM 6-shogaol in combination with low concentration of chloroquine
  fold increase in LC3-II expression: 3.3 fold
LC3-II in MCF7 cells; 15 μM 6-shogaol alone, relative to control
  fold increase in LC3-II expression: 2.1 fold
LC3-II in MCF7 cells; 15 μM 6-shogaol in combination with low concentration of chloroquine
  fold increase in LC3-II expression: 3.43 fold
MCF-7 spheroids [5]; concentrations above 10 μM
  secondary sphere formation: Not a single secondary sphere was found
MCF-7 spheroids [5]; primary spheroids treated with 1 μM for 1 week, control ~55 colonies
  inhibition of secondary spheroid colonies: 71%
MCF-7 spheroids [5]; primary spheroids treated with 5 μM for 1 week
  inhibition of secondary spheroid colonies: 80%
MCF-7 spheroids [5]; primary spheroids treated with 10 μM for 1 week
  inhibition of secondary spheroid colonies: 94.5%
MCF-7 cells [6]
  early apoptotic cells (Annexin positive/PI negative): 11%
MCF-7 spheroid [7]; 10 μM, after 6 days
  inhibition of cell viability: 46%
MCF-7 spheroid [7]; 10 μM, day 4
  inhibition of cell viability: ~ 35%
MCF-7 spheroid [7]; 20 μM, day 4
  inhibition of cell viability: 56%
MCF-7 spheroid [7]; 40 μM, day 4
  inhibition of cell viability: 83%
MCF-7 spheroid [7]; MCF-7 spheroids vs MCF-7 monolayer
  effective concentration in spheroids versus monolayer cells: 5 fold
MCF-7 spheroid [7]
  IC50: 39.5 ± 0.62 µM
MDA MB-231 spheroid; MDA-MB-231 spheroids vs MDA-MB-231 monolayer
  effective concentration in spheroids versus monolayer cells: 2 fold
MDA MB-231 spheroid
  IC50: 11.2 ± 0.83 µM
MDA MB-231 spheroid; more potent against MDA-MB-231 spheroids
  potency against MDA-MB-231 spheroids versus MCF-7 spheroids: ~ 3 fold
HEK 293 cells; 48 hours
  IC50: 69.97 ± 0.52 µM
HaCaT cells
  IC50: 103.8 ± 0.67 µM
MCF-7 spheroid [8]
  percentage of cells in G2/M: 42%
MCF-7 monolayer; 24h
  percentage of cells in G2/M: 48%
MCF-7 monolayer; 48h
  percentage of cells in G2/M: 55%
[9]
  percentage of CD44+CD24-/low cells (Q1): 2.3%
Breast cancer spheroids
  apoptosis in breast cancer spheroids: not able to detect appreciable amount of apoptosis

## COc1cc(/C=C/C(=O)CC(=O)/C=C/c2ccc(O)c(OC)c2)ccc1O [Curcumin, curcumin]
MCF-7 monolayer cells; Homo sapiens, MCF7, 48 hours
  IC50: 37.1 ± 0.85 µM
MCF-7 spheroid [7]; Homo sapiens, MCF7
  IC50: 7.27 ± 0.54 µM
HEK 293 cells; Homo sapiens, HEK293, 48 hours
  IC50: 23.1 ± 0.68 µM
HaCaT cells; Homo sapiens, HaCaT
  IC50: 10.4 ± 0.87 µM

## CC(=O)O[C@H]1C(=O)[C@@]2(C)[C@H]([C@H](OC(=O)c3ccccc3)[C@]3(O)C[C@H](OC(=O)[C@H](O)[C@@H](NC(=O)c4ccccc4)c4ccccc4)C(C)=C1C3(C)C)[C@]1(OC(C)=O)CO[C@@H]1C[C@@H]2O [Taxol, reference compound]
MCF-7 monolayer cells; Homo sapiens, MCF7, 48 hours
  IC50: 0.00492 ± 0.00071 µM
[1]; Homo sapiens, MDA-MB-231, 48 hours
  IC50: 0.00286 ± 0.00066 µM
MCF-7 spheroid [7]; Homo sapiens, MCF7
  IC50: > 50 µM
MDA MB-231 spheroid; Homo sapiens, MDA-MB-231
  IC50: > 20 µM
HEK 293 cells; Homo sapiens, HEK293, 48 hours
  IC50: 0.1038 ± 0.00048 µM
HaCaT cells; Homo sapiens, HaCaT
  IC50: 0.0427 ± 0.00075 µM

Reference: paper PMC4565635, “6-Shogaol Inhibits Breast Cancer Cells and Stem Cell-Like Spheroids by Modulation of Notch Signaling Pathway and Induction of Autophagic Cell Death” (PLoS ONE, 2015)
